Measurements from patent US12350247B2, “Use of APE1/Ref-1 inhibitors for treatment of retinal diseases” (Indiana University Research and Technology Corporation, priority 2017, dated 2025).
Read-outs that look alike come from different tables or passages of the source.

What was measured:
[1] = tested on: Panc10.05; assay: 3D tumor spheroid culture growth (fluorescence intensity); conditions: read-out: LC50; 3D Cultures, Tumor Alone, Panc10.05, D12 curves
[2] = tested on: Pa03C; assay: as above; conditions: read-out: LC50; 3D Cultures, Tumor Alone, Pa03C, D12 curves
[3] = tested on: CA9; assay: Hypoxia-induced CA9 mRNA and protein levels in 10.05 monolayer cells; format: cell-based, human; conditions: 10.05 cells, 0.2% O2 for 24 hours
Method: (§1) Western Blot Analysis: Immunoblotting was performed using antibodies for APE1/Ref-1 (Novus Biologicals; Littleton, CO), CA9 (Santa Cruz; Dallas, Texas), Actin (NeoMarkers; Fremont, CA), and Vinculin (Sigma; St. Louis, MO).
The comparative Ct method was used to quantitate mRNA levels using RPLP0 and B2M as reference genes. The primers for CA9, RPLP0, and B2M are commercially available (Applied Biosystems). Experiments were performed in triplicate for each sample.

[4] = tested on: CA9; assay: CA9 protein expression in 10.05 3D tumor spheroids (Western blot); format: cell-based, human; conditions: 3D spheroid cultures, 12 days, treated on days 4 and 8
Method: as §1
The effect of APE1/Ref-1 redox inhibition on CA9 protein expression was also measured in 3D tumor spheroids.

[5] = tested on: Pa03C and Panc10.05 tumor cells; assay: 3D spheroid / co-culture model of pancreatic cancer (both patient lines); conditions: for single agent efficacy on 3D spheroid growth: treated on days 4 and 8, FIG. 17
Method: Pa03C cells were plated into 3D cultures alone or with CAF19 cells.
Pa03C and Panc10.05 tumor cells were grown in 3D cultures in the presence of CAFs. Spheroids were treated with either single agents, vehicle (DMSO) or combination of targeted agents on days 4 and 8 (black arrows), and the intensity of tumor (red) and CAF (green) were quantified as described in Example 7 every 3-4 days in culture.

[6] = tested on: Pa03C; assay: Monolayer cytotoxicity under hypoxia (alamarBlue); format: cell-based; conditions: N = 3, read-out: LC50 (the source's name)
From the text: (§2) To determine target selectivity, analogs of APX3330, APX2009 and APX2014, and an analog of SLC-0111, FC12-531A, were used.

[7] = tested on: Panc10.05; assay: Monolayer cytotoxicity under hypoxia (alamarBlue); format: cell-based
From the text: as §2

[8] = tested on: CAFs (CAF19 cells); assay: 3D spheroid co-culture, CAF signal (green channel); conditions: read-out: LC50, 3D Cultures, CAFs
[9] = tested on: 10.05 cells; assay: Intracellular pH assay (pHrodo Red AM) in hypoxic 10.05 cells; format: cell-based, human; conditions: 0.2% O2 48 hrs; up to 50 μM APX3330, 100 μM SLC-0111; 8 APX2009, 5 μM APX2014
From the text: Therefore, the APX3330 analogs, APX2009 and APX2014, were used to determine whether APE1/Ref-1 redox inhibition alone can shift intracellular pH in hypoxic PDAC cells given a sufficiently potent inhibitor.

[10] = tested on: human carcinoma colon cell line HCT-116; assay: Alamar blue cytotoxicity combination assay (CalcuSyn); format: cell-based; conditions: only one APX2014 dosage (12.5 uM), spiked with 75 uM CPI-613
Method: HTC-116 (Yunhua Liu) was seeded in a 96-well tissue culture plate at 2000 cells/well in DMEM+10% FBS and grown overnight at 37° C., 5% CO2. Drug Media DMEM+5% FBS was added at dosages of APX3330 (Apexian) in a 5-point spread from 75 uM to 6.3 uM and spiked with CPI-613 (Apexbio Technology) at 75 uM, or 50 uM, or alone for single agent. Cells were incubated for 72 hours at 37° C., 5% CO2. Media was exchanged with DMEM+5% FBS+10% Alamar blue fluorescent cell viability indicator (INVITROGEN™) and incubated 4 hours at 37° C., 5% CO2 and then read on a fluorescent reader (SYNERGY™ H4 BioTek). […] depicts Chou-Talalay Index (CI) of dose combinations (CalcuSyn). FIG. 32E depicts synergistic drug combinations (CalcuSyn) of APX3330 spiked with 50 uM CPI-613 or 75 uM CPI-613. […] Data shown is the average of 3 separate cytotoxicity assays; each assay normalized to media only control.
HTC-116 (Yunhua Liu) was seeded in a 96-well tissue culture plate at 2000 cells/well in DMEM+10% FBS and grown overnight at 37° C., 5% CO2. Drug Media DMEM+5% FBS was added at dosages of APX3330 (Apexian) from 100 uM to 0.4 uM in a 10-point spread and spiked with CPI-613 (Apexbio Technology) at 100 uM, or 75 uM, or alone for single agent. Cells were incubated for 72 hours at 37° C., 5% CO2. Media was exchanged with DMEM+5% FBS+10% Alamar blue fluorescent cell viability indicator (INVITROGEN™) and incubated 4 hours at 37° C., 5% CO2 and then read on a fluorescent reader (SYNERGY™ H4 BioTek). […] FIG. 33D depicts Chou-Talalay Index (CI) of dose combinations (CalcuSyn). FIG. 33E depicts synergistic drug combinations (CalcuSyn) of APX3330 spiked with 100 uM CPI-613 or 75 uM CPI-613. […] Data shown is the average of 3 separate cytotoxicity assays; each assay normalized to media only control.
HTC-116 (Yunhua Liu) was seeded in a 96-well tissue culture plate at 2000 cells/well in DMEM+10% FBS and grown overnight at 37° C., 5% CO2. Drug Media DMEM+5% FBS was added at dosages of APX2014 (Apexian) in a 5-point spread from 25 uM to 1.6 uM and spiked with CPI-613 (Apexbio Technology) at 75 uM, or 50 uM, or alone for single agent. Cells were incubated for 72 hours at 37° C., 5% CO2. Media was exchanged with DMEM+5% FBS+10% Alamar blue fluorescent cell viability indicator (INVITROGEN™) and incubated 4 hours at 37° C., 5% CO2 and then read on a fluorescent reader (SYNERGY™ H4 BioTek). […] FIG. 34D depicts Chou-Talalay Index (CI) of dose combinations (CalcuSyn). FIG. 34E depicts synergistic drug combinations (CalcuSyn) of APX2014 spiked with 50 uM CPI-613 or 75 uM CPI-613. Drug combination synergy could not be ascertained at APX2014 dosages when spiked with 50 uM CPI-613. […] Data shown is the average of 3 separate cytotoxicity assays; each assay normalized to media only control.
HTC-116 (Yunhua Liu) was seeded in a 96-well tissue culture plate at 2000 cells/well in DMEM+10% FBS and grown overnight at 37° C., 5% CO2. Drug Media DMEM+5% FBS was added at dosages of APX3330 (Apexian) from 100 uM to 0.4 uM in a 10-point spread and spiked with CB-839 (Sigma-Aldrich) at 1000 nM, or 500 nM, or alone for single agent. Cells were incubated for 72 hours at 37° C., 5% CO2. Media was exchanged with DMEM+5% FBS+10% Alamar blue fluorescent cell viability indicator (INVITROGEN™) and incubated 4 hours at 37° C., 5% CO2 and then read on a fluorescent reader (SYNERGY™ H4 BioTek). FIG. 35A depicts APX3330 and CB-839 single agent effects. FIG. 35B depicts APX3330 and CB-839 synergistic combo effects. […] FIG. 35E depicts synergistic drug combinations (CalcuSyn) of APX3330 spiked with 1000 nM CB-839 or 500 nM CB-839 (5-pt only). […] Data shown is the average of 3 separate cytotoxicity assays; each assay normalized to media only control.

[11] = tested on: mouse colon cell line MC-38; assay: Alamar blue cytotoxicity assay; format: cell-based; conditions: single agent, 72 hours
Method: MC-38 cells (Yunhua Liu) were seeded in a 96-well tissue culture plate at 2000 cells/well in DMEM+10% FBS and grown overnight at 37° C., 5% CO2. […] Cells were incubated for 72 hours at 37° C., 5% CO2. Media was exchanged with DMEM+5% FBS+10% Alamar blue fluorescent cell viability indicator (Invitrogen™) and incubated 4 hours at 37° C., 5% CO2 and then read on a fluorescent reader (Synergy™ H4 BioTek). […] Data shown is the average of 3 separate cytotoxicity assays; each assay normalized to media only control.

[12] = tested on: Panc10.05
[13] = tested on: Pa03C
[14] = tested on: bladder cell line BLCAb001; assay: 96-hour viability assay, APX2014 with cisplatin; format: cell-based; conditions: APX2014 doses of 6 mM-3 mM in combination with cisplatin
Method: The BLCAb001 (cisplatin resistant) cell line was treated with increasing concentrations of APX2014 and cisplatin as single agents and in combination and assayed in a 96-hour viability assay. The concentrations of APX2014 range from 6 mM-0.38 mM in combination with the indicated cisplatin doses (FIG. 36A). […] The concentrations of Cisplatin as a single agent range from 2.5 mM-0.04 mM (FIG. 36B).

[15] = tested on: PDAC cells and CAFs; assay: 3D co-culture cytotoxicity, Ref-1 inhibition with docetaxel or trametinib; format: cell-based
From the text: Standard 3D co-culture assays as prepared in Arpin, C. et al., Mol Cancer Ther 15, 794-805 (2016); Logsdon, P. et al., Mol Cancer Ther 15, 2722-2732 (2016); Cardoso, A. et al., PloS one 7, e4742 (2012); and Kelley, M. et al., The Journal of pharmacology and experimental therapeutics 359, 300-309 (2016) were used to evaluate the cytotoxicity of the combinations on tumor cells as well as cancer-associated fibroblasts.

[16] = tested on: patient-derived Pa03C tumors with CAFs; assay: Flank co-culture model of PDAC, APX3330 and Ruxolitinib; format: in vivo, mice; conditions: treatment alone, 50 mg/kg, day 28
Method: Treatment of the implanted tumors started on day 11 post implant. Particularly, the co-cultures implanted included 2.5×10^6 tumor cells +/−5 ×10^6 CAFs, providing a 1:2 ratio of tumor cell to CAF. […] The mice were then administered either 50 mg/kg APX3330 BID in 4% Cr:EtOH, 50 mg/kg Rux SID pm in 4% Cr:EtOH, or combinations of the agents. Treatment schedule consisted of treating for 5 days and then giving 2 days off treatment until the tumors reached an average size of 2000 mm^3.

[17] = tested on: patient-derived PDAC cell lines (10.05, Pa02C, Pa03C); assay: SLC-0111 efficacy in PDAC cell lines under hypoxic conditions; format: cell-based; conditions: Homo sapiens, all three patient-derived PDAC cell lines, 0.2% O2, read-out: LC50 during hypoxia exposure
Method: The efficacy of SLC-0111, a CA9 inhibitor that has recently completed a Phase I clinical trial, was evaluated in different PDAC cell lines under hypoxic conditions for comparison.

[18] = Homo sapiens, Panc1005, Panc10.05, N = 3, read-out: LC50 (the source's name)
[19] = co-culture with Pa03C, D12 curves
[20] = co-culture with Panc10.05, D12 curves

Row | Compound | CC50 [1] | CC50 [2] | fold less required vs. APX3330 to decrease hypoxia-induced CA9 mRNA and protein levels [3] | fold less of the concentration compared to APX3330 to attenuate CA9 expression [4] | single agent efficacy on 3D spheroid growth [5] | CC50 ([6]; Homo sapiens) | CC50 [7, 18] | CC50 [8, 19] | CC50 [8, 20] | effect on intracellular pH as single agent [9] | cytotoxicity in combination with Ref-1 inhibition [15] | also measured
1 | CCC/C(=C\C1=C(OC)C(=O)c2ccccc2C1=O)C(=O)N(CC)CC [APX2009, (2E)-2-[(3-methoxy-1,4-dioxo-1,4-dihydronaphthalen-2-yl)methylidene]-N,N-diethylpentanamide] | 9.4 µM | 6.9 µM | 10 fold | 10 fold | as effective as APX3330 | 6.7 µM | 4.9 µM | 13.1 µM | 14.1 µM | decreased intracellular pH | – | tumor killing in combination with napabucasin ([5]; 3D spheroid model (tumor and CAF)): synergistic tumor killing effect
2 | CCC/C(=C\C1=C(OC)C(=O)c2ccccc2C1=O)C(=O)NOC [APX2014, (2E)-2-[(3-methoxy-1,4-dioxo-1,4-dihydronapthalen-2-yl)methylidene]-N-methoxypentanamide] | – | – | 10 fold | 10 fold | as effective as APX3330 | – | – | – | – | decreased intracellular pH | – | drug combination synergy (Chou-Talalay, CalcuSyn) [10]: Synergy was observed; EC10 [11]: 2.0 µM; EC30 [11]: 3.0 µM; CC50 [12]: 0.3 µM; CC50 [13]: 1.1 µM; CC50 [6]: 3.5 µM; CC50 ([7]; Panc10.05, N = 3, read-out: LC50 (the source's name)): 1.3 µM; combination index [14]: > 1.0
3 | CC(=O)O[C@@]12CO[C@@H]1C[C@H](O)[C@@]1(C)C(=O)[C@H](O)C3=C(C)[C@@H](OC(=O)[C@H](O)[C@@H](NC(=O)OC(C)(C)C)c4ccccc4)C[C@@](O)([C@@H](OC(=O)c4ccccc4)[C@H]21)C3(C)C [Docetaxel] | – | – | – | – | – | – | – | – | – | – | more effective than either agent alone | –
4 | N#CC[C@H](C1CCCC1)n1cc(-c2ncnc3[nH]ccc23)cn1 [Rux, Ruxolitinib, reference compound] | – | – | – | – | – | – | – | – | – | – | – | average tumor size [16]: 1750 mm³
5 | NS(=O)(=O)c1ccc(NC(=O)Nc2ccc(F)cc2)cc1 [SLC-0111, reference compound] | 64 µM | 51.9 µM | – | – | – | 90.8 µM | 63.9 µM | 97 µM | 98.2 µM | did not affect | – | CC50 [17]: < 100 µM
6 | CC(=O)Nc1cccc(-n2c(=O)n(C3CC3)c(=O)c3c(Nc4ccc(I)cc4F)n(C)c(=O)c(C)c32)c1 [Trametinib] | – | – | – | – | – | – | – | – | – | – | more effective than either agent alone | –
